Results on 12 compounds are retold here after BindingDB's records for doi:10.1074/jbc.M607913200 (Incyte, 2006).

In this experiment the target is T1, Tyrosine-protein phosphatase non-receptor type 1 [1-298] (Homo sapiens, UniProt P18031).
T1 construct: 1-298
T1 sequence (P18031 whole entry): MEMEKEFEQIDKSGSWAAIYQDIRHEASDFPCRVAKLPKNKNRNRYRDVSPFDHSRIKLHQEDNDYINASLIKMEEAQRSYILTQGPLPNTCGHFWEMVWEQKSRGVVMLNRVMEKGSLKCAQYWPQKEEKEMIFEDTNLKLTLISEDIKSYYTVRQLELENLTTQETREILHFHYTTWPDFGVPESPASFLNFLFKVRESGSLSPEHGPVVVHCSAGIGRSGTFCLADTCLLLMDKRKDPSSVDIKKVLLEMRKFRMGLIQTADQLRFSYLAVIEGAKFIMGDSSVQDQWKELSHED
In words: Phosphatase Inhibition Assay.

For `O=C1CC(c2ccc(C[C@H](NS(=O)(=O)c3cccc(Oc4ccccc4)c3)c3nc4ccccc4[nH]3)cc2)S(=O)(=O)N1` (stereo partly drawn) [N-[(1S)-1-(1H-1,3-benzodiazol-2-yl)-2-[4-(1,1,3-trioxo-1,2-thiazolidin-5-yl)phenyl]ethyl]-3-phenoxybenzene-1-sulfonamide], the IC50 came out at 110 nM. On the same count and under the same terms, in the case of `O=C1CC(c2ccc(C[C@H](NS(=O)(=O)c3cc(Cl)cc(Cl)c3)c3nc4ccccc4[nH]3)cc2)S(=O)(=O)N1` (stereo partly drawn) [N-[(1S)-1-(1H-1,3-benzodiazol-2-yl)-2-[4-(1,1,3-trioxo-1,2-thiazolidin-5-yl)phenyl]ethyl]-3,5-dichlorobenzene-1-sulfonamide] it was 51 nM.

For `NC(=O)[C@H](Cc1ccc(C(F)(F)P(=O)(O)O)cc1)NC(=O)[C@H](Cc1ccccc1)NC(=O)Cc1ccc(C(F)(F)P(=O)(O)O)cc1` [({4-[(2S)-2-carbamoyl-2-[(2S)-2-(1-{4-[difluoro(phosphono)methyl]phenyl}acetamido)-3-phenylpropanamido]ethyl]phenyl}difluoromethyl)phosphonic acid], the midpoint of inhibition (pH 7, 22 °C), the IC50, lay at 1.7 nM. `O=C1CC(c2ccc(C[C@H](NS(=O)(=O)c3ccc(C(F)(F)F)cc3Br)c3nc4ccccc4[nH]3)cc2)S(=O)(=O)N1` (stereo partly drawn) [N-[(1S)-1-(1H-1,3-benzodiazol-2-yl)-2-[4-(1,1,3-trioxo-1,2-thiazolidin-5-yl)phenyl]ethyl]-2-bromo-4-(trifluoromethyl)benzene-1-sulfonamide] came in with an IC50 of 170 nM.

`O=C(Cc1ccc(C(F)(F)P(=O)(O)O)cc1)N[C@@H](Cc1ccccc1)C(=O)NCCc1ccc(C(F)(F)P(=O)(O)O)cc1` [[(4-{2-[(2S)-2-(1-{4-[difluoro(phosphono)methyl]phenyl}acetamido)-3-phenylpropanamido]ethyl}phenyl)difluoromethyl]phosphonic acid]: half-maximal inhibition (pH 7, 22 °C) (IC50) was put at 46 nM. Take `O=C1CC(c2ccc(C[C@H](NS(=O)(=O)c3cccc(F)c3)c3nc4ccccc4[nH]3)cc2)S(=O)(=O)N1` (stereo partly drawn) [N-[(1S)-1-(1H-1,3-benzodiazol-2-yl)-2-[4-(1,1,3-trioxo-1,2-thiazolidin-5-yl)phenyl]ethyl]-3-fluorobenzene-1-sulfonamide]: the IC50 turned out to be 66 nM. The same measure, in the same setting: as for `CC(C)c1ccc(S(=O)(=O)N[C@@H](Cc2ccc(C3CC(=O)NS3(=O)=O)cc2)c2nc3ccccc3[nH]2)cc1` (stereo partly drawn) [N-[(1S)-1-(1H-1,3-benzodiazol-2-yl)-2-[4-(1,1,3-trioxo-1,2-thiazolidin-5-yl)phenyl]ethyl]-4-(propan-2-yl)benzene-1-sulfonamide], the figure is 100 nM. In turn, `Cc1ccc2nc(N[C@@H](Cc3ccc([C@@H]4CC(=O)NS4(=O)=O)cc3)c3nc4ccccc4[nH]3)sc2c1` [(5S)-5-{4-[(2S)-2-(1H-1,3-benzodiazol-2-yl)-2-[(6-methyl-1,3-benzothiazol-2-yl)amino]ethyl]phenyl}-1,2-thiazolidine-1,1,3-trione] registered an IC50 of 1100 nM. In turn, `O=C1C[C@@H](c2ccc(C[C@H](NC(=O)C(F)(F)F)c3nc4ccc(C(F)(F)F)cc4[nH]3)cc2)S(=O)(=O)N1` [N-{(1S)-2-[4-(1,1-dioxido-3-oxoisothiazolidin-5-yl)phenyl]-1-[5-(trifluoromethyl)-1H-benzimidazol-2-yl]ethyl}-2,2,2-trifluoroacetamide] showed a 50% inhibitory concentration (IC50) (pH 7, 22 °C) of 110 nM. `O=C1CC(c2ccc(C[C@H](NS(=O)(=O)c3ccccc3)c3nc4ccccc4[nH]3)cc2Br)S(=O)(=O)N1` (stereo partly drawn) [N-[(1S)-1-(1H-1,3-benzodiazol-2-yl)-2-[3-bromo-4-(1,1,3-trioxo-1,2-thiazolidin-5-yl)phenyl]ethyl]benzenesulfonamide]: the IC50 worked out at 170 nM. Regarding `NC(=O)[C@H](Cc1ccccc1)NC(=O)[C@@H](NC(=O)Cc1ccc(C(F)(F)P(=O)(O)O)cc1)C(=O)O` [(2R)-2-{[(1S)-1-carbamoyl-2-phenylethyl]carbamoyl}-2-(1-{4-[difluoro(phosphono)methyl]phenyl}acetamido)acetic acid], the IC50 (pH 7, 22 °C) worked out at 33000 nM.

`NC(=O)[C@H](Cc1ccc(C(F)(F)P(=O)(O)O)cc1)NC(=O)[C@@H](NC(=O)Cc1ccc(C(F)(F)P(=O)(O)O)cc1)C(=O)O` [(2R)-2-{[(1S)-1-carbamoyl-2-{4-[difluoro(phosphono)methyl]phenyl}ethyl]carbamoyl}-2-(1-{4-[difluoro(phosphono)methyl]phenyl}acetamido)acetic acid] returned a half-inhibitory concentration (IC50) (pH 7, 22 °C) of 0.4 nM.

The IC50 is the point on the concentration scale where inhibition reaches its midpoint.
